# Measured values reported in publication PMC10539501 (Nature Communications, 2023).
# Where two headings read alike, the source gives them in different places. Non-standard residues stand in square brackets, D forms with d. Residues, ends and D or L forms follow the SMILES beside them.
# Experiments:
# [1] = blood plasma, cited from earlier work
# From the text: Next, we sought to assess the in vivo efficacy of the thioamidated somatostatin analogs post s.c. administration. Somatostatin, first known to inhibit the release of growth hormone, induces its biological effects by interacting with five of its G-protein-coupled receptor subtypes SSTR1-SSTR5[50]. Out of which, the SSTR2 and SSTR5 have gained significant attention due to their role in mediating the inhibition of growth hormone and antiproliferative effects of somatostatin on tumor growth. […]
# [2] = Retention in hydrophobic C18 column by HPLC; settings: Supplementary Fig 3d, logD7.4 vs tR
# pepsin [3] = biological target: T1, pepsin (Sus scrofa, UniProt P00791); settings: pH 1.2
# T1 sequence (P00791 60-385): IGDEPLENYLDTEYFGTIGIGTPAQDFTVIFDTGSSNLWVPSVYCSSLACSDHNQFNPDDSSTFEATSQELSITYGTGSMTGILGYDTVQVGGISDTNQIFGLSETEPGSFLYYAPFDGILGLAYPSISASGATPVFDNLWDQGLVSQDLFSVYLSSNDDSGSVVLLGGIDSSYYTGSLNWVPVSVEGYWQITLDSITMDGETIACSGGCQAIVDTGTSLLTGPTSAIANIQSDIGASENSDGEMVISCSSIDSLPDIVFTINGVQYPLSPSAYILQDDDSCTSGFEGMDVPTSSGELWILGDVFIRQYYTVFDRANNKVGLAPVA
# Experimental: (§1) A stability assessment of the peptides was done in simulated gastric (SGF) and intestinal (SIF) fluids and human liver microsomes. The degradation kinetics of the aliquoted samples at desired time points were analyzed through RP-HPLC.
# [4] = HDX of amide protons by NMR in CDCl3:CD3OD (8:2)
# Experimental: (§2) As hydrogen bonding and solvation of NH groups play an important role in the permeability of macrocycles, we determined the solvent accessibility of individual amide protons in 10 and 10a–10f by hydrogen-deuterium exchange (HDX) through NMR spectroscopy (Figs. 2a–c).
# (§3) Spectra were recorded on a Bruker AV 500 MHz spectrometer at 25 °C.
# in vitro [5] = settings: both, human, plasma
# in vivo = settings: male, Wistar, rat
# Experimental: (§4) All animals were housed individually in the animal facility at Anthem Biosciences Pvt. Ltd and were acclimatized for 3 days. All animals were fasted overnight before dosing, whereas access to water was provided ad libitum. Peptides were administered orally and via s.c. route and blood samples were collected at different time points through a jugular vein catheter.
# [6] = HDX of amide protons by NMR in DMSO-d6:D2O (8:2); settings: HDX by NMR, 20% D2O in DMSO-d6
# Experimental: as §2, §3
# in vitro [7] = settings: pig, simulated intestinal fluid
# Experimental: We next assessed the stability of the macrocyclic peptides in Simulated Intestinal Fluid (SIF)[42], comprising of pancreatin, which is a mixture of several proteases produced by the exocrine cells of the porcine pancreas.
# as §1
# [8] = rat, in vivo
# Experimental: as §4
# [9] = format: physicochemical
# in vitro [10] = settings: human, microsomes
# Experimental: as §1
# pepsin [11] = biological target: T1, pepsin; assay: in vitro; settings: simulated gastric fluid, pH 1.2
# Experimental: as §1
# in vitro [12] = settings: both, human, plasma; remark: listed apart in the source
# [13] = format: physicochemical; remark: listed apart in the source
# [14] = 20% CD3OD in CDCl3, % remaining after 24 hours
# Experimental for human liver microsomes: as §1
smiles,measurement,setting,value
C[C@H](N)C(=O)NCC(=O)N[C@H]1CSSC[C@@H](C(=O)O)NC(=O)[C@H](CO)NC(=O)[C@H]([C@@H](C)O)NC(=O)[C@H](Cc2ccccc2)NC(=O)[C@H]([C@@H](C)O)NC(=O)[C@H](CCCCN)NC(=O)[C@H](Cc2c[nH]c3ccccc23)NC(=O)[C@H](Cc2ccccc2)NC(=O)[C@H](Cc2ccccc2)NC(=O)[C@H](CC(N)=O)NC(=O)[C@H](CCCCN)NC1=O [SRIF-14],plasma half-life,[1],3 min
same,plasma half-life,[1]; listed as native somatostatin,~ 3 min
"CC(C)C[C@@H]1NC(=O)[C@H](Cc2ccc(O)cc2)NC(=O)[C@H]2CCCN2C(=O)[C@H](CC(C)C)NC(=O)[C@H](CC(C)C)NC(=O)[C@@H](CC(C)C)NC1=O [compound 10, cyclo(-D-Leu^1-Leu-Leu-D-Pro-Tyr-Leu^6-)] (cyclo(LL[dP]YL[dL]))",tR,[2],9.3 min
same,Half lives (SGF) set1,pepsin [3],10 min
same,Half-life of D-Leu1 amide proton (HDX),[4]; 20% CD3OD in CDCl3,7.25 h
same,Half-life of Leu2 amide proton (HDX),[4]; 20% CD3OD in CDCl3,2 min
same,Half-life of Leu3 amide proton (HDX),[4]; 20% CD3OD in CDCl3,> 24 h
same,Half-life of Leu6 amide proton (HDX),[4]; 20% CD3OD in CDCl3,> 24 h
same,Half-life of Tyr5 amide proton (HDX),[4]; 20% CD3OD in CDCl3,1.75 h
same,"% intact NH, Leu3",[4]; [14],72%
same,"% intact NH, Leu6",[4]; [14],90%
same,t1/2 in human blood plasma,,8 h
same,half-life,in vitro [5],8 h
same,remaining at 1 h,in vitro [5],86%
same,remaining at 3 h,in vitro [5],80%
same,remaining at 5 h,in vitro [5],67%
same,remaining at 7 h,in vitro [5],59%
same,remaining at 9 h,in vitro [5],43%
same,remaining at 12 h,in vitro [5],37%
same,remaining at 24 h,in vitro [5],24%
same,remaining at 36 h,in vitro [5],19%
same,remaining at 48 h,in vitro [5],13%
same,remaining at 60 h,in vitro [5],4%
same,remaining at 72 h,in vitro [5],4%
same,Half lives,human liver microsomes,6.7
same,Intrinsic clearance (CLint) Avg,human liver microsomes; human,225 µL/min/mg
same,AUC(0-t),in vivo; iv,548 ng·h/mL
same,Cmax,in vivo; iv,1050 ng/mL
same,MRT,in vivo; iv,1.6 h
same,Vd,in vivo; iv,4.1 L/kg
same,clearance,in vivo; iv,28.4 mL/min/kg
same,AUC(0-t),"in vivo; po, 10 mg/kg",0.9 ng·h/mL
same,Cmax,"in vivo; po, 10 mg/kg",3.5 ng/mL
same,MRT,"in vivo; po, 10 mg/kg",0.2 h
same,Half-life of D-Leu1 amide proton (HDX),[6],0.25 h
same,Half-life of Leu2 amide proton (HDX),[6],1.52 h
same,Half-life of Leu3 amide proton (HDX),[6],3.28 h
same,Half-life of Leu6 amide proton (HDX),[6],7.83 h
same,Half-life of Tyr5 amide proton (HDX),[6],0.817 h
same,half-life,in vitro [7],0.267 h
same,remaining at 10 min,in vitro [7],57.1%
same,remaining at 0.5 h,in vitro [7],39%
same,remaining at 1 h,in vitro [7],30.7%
same,remaining at 2 h,in vitro [7],13.4%
same,remaining at 4 h,in vitro [7],12%
same,remaining at 8 h,in vitro [7],7.3%
same,remaining at 12 h,in vitro [7],5.5%
same,remaining at 24 h,in vitro [7],3%
same,%F,[8],0%
same,time over which the peptide is detectable in plasma,"[8]; po, 10 mg/kg",≤ 1 h
same,% solubility,[9],97%
same,remaining at 5 min,in vitro [10],55%
same,remaining at 10 min,in vitro [10],40%
same,remaining at 20 min,in vitro [10],33%
same,remaining at 0.5 h,in vitro [10],29%
same,remaining at 0.75 h,in vitro [10],22%
same,remaining at 1 h,in vitro [10],14%
same,half-life,pepsin [11],0.2 h
same,remaining at 5 min,pepsin [11],67%
same,remaining at 10 min,pepsin [11],54%
same,remaining at 20 min,pepsin [11],40%
same,remaining at 0.5 h,pepsin [11],34%
same,remaining at 1 h,pepsin [11],22%
same,remaining at 2 h,pepsin [11],16%
same,remaining at 4 h,pepsin [11],10%
same,remaining at 8 h,pepsin [11],6%
same,remaining at 12 h,pepsin [11],2%
same,remaining at 24 h,pepsin [11],0%
same,fraction unbound,in vitro [12],0.51
same,logD heptane ethylene glycol,[13],0.46
